The values below come from patent US10221139B2, “Inhibitors of histone demethylases” (Gilead Sciences, Inc., priority 2012, dated 2019).

The test system of this assay is demethylation of H3K4 (H3K4me3 mark) in U2OS cells. Nature of the assay: Histone lysine demethylase immunofluorescence assay, non-transfected U2OS cells (H3K4me3 staining). Particulars: Homo sapiens, 20 hours. The format is cell-based. The procedure: Histone Lysine Demethylase Immunofluorescence Assays for IC50 Value Determination, Non-Transfected Cells
U2OS cells were harvested and seeded into multi well plates into media containing compound. The media used was DMEM containing 5% FBS and pen/strep. 20 hours after incubation of cells with compounds, the cells were washed once in PBS, harvested by fixation with formaldehyde 4% aqueous solution, and washed 2 times in PBS. Subsequently, the cells were permeabilized in PBS with 0.2% Triton X-100 for 10 min at room temperature. Blocking was performed in PBS with 0.2% Triton X-100 and 5% FBS for 45 min at room temperature. The cells were incubated with αH3K4me3 primary antibody (Cell Signaling, #9751S) diluted 1:1000 in blocking solution over night at 4° C. After incubation with primary antibody, the cells were washed 3 times with PBS, incubated with secondary antibody diluted 1:1000 (Alexa fluor 594 goat anti rabbit IgG, Invitrogen, A11012) and Hoechst, 20 μg/ml (Sigma, 33342) in blocking solution, and washed again 3 times with PBS. Finally, PBS was added and high throughput imaging and analysis were performed by an IN Cell Analyzer 1000 (GE Healthcare). The IC50 values seen in Table 4 were based on an average measure of the staining of the H3K4me3 mark in cells.

One may read the IC50 as the concentration needed to halve the response being measured. Higher therefore signals weaker potency in that assay. For the compound `CCN(CCN(C)C)C(=O)CNCc1cc(C(=O)Oc2ccc(C(C)(C)C)cc2)ccn1` [drawing 237, 4-tert-butylphenyl 2-{[({[2-(dimethylamino)ethyl](ethyl)carbamoyl}methyl)amino]methyl}pyridine-4-carboxylate], the IC50 was less than 1000 nM.
Then `CCN(CC)CCCCNCc1cc(C(=O)OCCN(C)C)ccn1` [drawing 229, 2-(dimethylamino)ethyl 2-({[4-(diethylamino)butyl]amino}methyl) pyridine-4-carboxylate], with 1000 to 50000 nM.
Turning to `CCOC(=O)c1ccnc(CNCC(=O)N(CC)CCN(C)C)c1` [drawing 241, ethyl 2-{[({[2-(dimethylamino)ethyl](ethyl)carbamoyl}methyl)amino]methyl}pyridine-4-carboxylate], the IC50 was less than 1000 nM.
`CCN(CC)CCCCNCc1cc(C(=O)O)ccn1` [drawing 225, 2-({[4-(diethylamino)butyl]amino}methyl) pyridine-4-carboxylic acid] had an IC50 of 1000 to 50000 nM.
The result for `CCN(CCN(C)C)C(=O)CNCc1cc(C(=O)OC(CCNC(=O)C(F)(F)F)CC(=O)OC(C)C)ccn1` (stereo not shown) [drawing 250, propan-2-yl 3-(2-{[({[2-(dimethylamino)ethyl](ethyl)carbamoyl}methyl)amino]methyl}pyridine-4-carbonyloxy)-5-(trifluoroacetamido)pentanoate] reads less than 1000 nM; that for `CCN(CCN(C)C)C(=O)CNCc1cc(C(=O)N(C)S(C)(=O)=O)ccn1` [drawing 247, 2-{[({[2-(dimethylamino)ethyl](ethyl)carbamoyl}methyl)amino]methyl}-N-methanesulfonyl-N-methylpyridine-4-carboxamide], 1000 to 50000 nM; that for `CCN(CCN(C)C)C(=O)CNCc1cc(C(=O)OC(C)CC(C)=O)ccn1` (stereo not shown) [drawing 238, 4-oxopentan-2-yl 2-{[({[2-(dimethylamino)ethyl](ethyl)carbamoyl}methyl)amino]methyl}pyridine-4-carboxylate], less than 1000 nM.
Compound `CCCCCCCCCCCCCCCC(=O)OCC(COC(=O)CCCCCCCCCCCCCCC)OC(=O)c1ccnc(CNCC(=O)N(CC)CCN(C)C)c1` [drawing 244, 2-(2-{[({[2-(dimethylamino)ethyl](ethyl)carbamoyl}methyl)amino]methyl}pyridine-4-carbonyloxy)-3-(hexadecanoyloxy)propyl hexadecanoate] came in with an IC50 of less than 1000 nM.
Then `CCN(CCN(C)C)C(=O)CNCc1cc(C(=O)Nc2ncco2)ccn1` [drawing 252, 2-{[({[2-(dimethylamino)ethyl](ethyl)carbamoyl}methyl)amino]methyl}-N-(1,3-oxazol-2-yl)pyridine-4-carboxamide], with 1000 to 50000 nM; and `CCN(CCN(C)C)C(=O)CNCc1cc(C(=O)Oc2c(OC(C)C)cccc2OC(C)C)ccn1` [drawing 253, 2,6-bis(propan-2-yloxy)phenyl 2-{[({[2-(dimethylamino)ethyl](ethyl)carbamoyl}methyl)amino]methyl}pyridine-4-carboxylate], with 1000 to 50000 nM.
The result for `COC(=O)c1ccnc(CNCCCN2CCCC2)c1` [drawing 224, methyl 2-({[3-(pyrrolidin-1-yl)propyl]amino}methyl)pyridine-4-carboxylate] reads 1000 to 50000 nM; that for `CCOC(=O)N(C)c1ccc(COC(=O)c2ccnc(CNCCCCN(CC)CC)c2)cc1` [drawing 236], less than 1000 nM.
The result for `CCN(CCN(C)C)C(=O)CNCc1cc(C(=O)OC)ccn1` [drawing 246, methyl 2-{[({[2-(dimethylamino)ethyl](ethyl)carbamoyl}methyl)amino]methyl}pyridine-4-carboxylate] reads less than 1000 nM; that for `CCN(CCN(C)C)C(=O)CNCc1cc(C(=O)O)ccn1` [drawing 226, 2-{[({[2-(dimethylamino)ethyl](ethyl)carbamoyl}methyl)amino]methyl}pyridine-4-carboxylic acid], 1000 to 50000 nM; that for `C=CC(CCNC(=O)C(F)(F)F)OC(=O)c1ccnc(CNCC(=O)N(CC)CCN(C)C)c1` (stereo not shown) [drawing 242, 5-(trifluoroacetamido)pent-1-en-3-yl 2-{[({[2-(dimethylamino)ethyl](ethyl)carbamoyl}methyl)amino]methyl}pyridine-4-carboxylate], less than 1000 nM.
`CCN(CCN(C)C)C(=O)CNCc1cc(C(=O)OC(C)CCNC(=O)C(F)(F)F)ccn1` (stereo not shown) [drawing 239, 4-(trifluoroacetamido)butan-2-yl 2-{[({[2-(dimethylamino)ethyl](ethyl)carbamoyl}methyl)amino]methyl}pyridin-4-carboxylate] yielded a 50% inhibitory concentration (IC50) of less than 1000 nM.
The compound `CCN(CCN(C)C)C(=O)CNCc1cc(C(=O)Nc2nccn2C)ccn1` [drawing 254, 2-{[({[2-(dimethylamino)ethyl](ethyl)carbamoyl}methyl)amino]methyl}-N-(1-methyl-1H-imidazol-2-yl)pyridine-4-carboxamide] registered an IC50 of 1000 to 50000 nM.
The result for `O=C(CNCc1cc(C(=O)O)ccn1)NC1CCN(CCCc2ccccc2)CC1` [drawing 223, 2-{[({[1-(3-phenylpropyl)piperidin-4-yl]carbamoyl}methyl)amino]methyl} pyridine-4-carboxylic acid] reads more than 50000 nM.
Then `CCN(CC)CCCCNCc1cc(C(=O)Oc2c(OC)cccc2OC)ccn1` [drawing 232, 2,6-dimethoxyphenyl 2-({[4-(diethylamino)butyl]amino}methyl) pyridine-4-carboxylate], with less than 1000 nM; and `CCN(CC)CCCCNCc1cc(C(=O)OCCCN(C)C)ccn1` [drawing 230, 3-(dimethylamino)propyl 2-({[4-(diethylamino)butyl]amino}methyl) pyridine-4-carboxylate], with 1000 to 50000 nM.
Then `CCN(CC)CCCCNCc1cc(C(=O)Oc2ccc(OC)cc2)ccn1` [drawing 227, 4-methoxyphenyl 2-({[4-(diethylamino)butyl]amino}methyl) pyridine-4-carboxylate], with less than 1000 nM.
The compound `CCCCCCCCCCCCCCCC(=O)OCC(COC(=O)c1ccnc(CNCC(=O)N(CC)CCN(C)C)c1)OC(=O)CCCCCCCCCCCCCCC` (stereo not shown) [drawing 245, 1-(2-{[({[2-(dimethylamino)ethyl](ethyl)carbamoyl}methyl)amino]methyl}pyridine-4-carbonyloxy)-3-(hexadecanoyloxy)propan-2-yl hexadecanoate] gave an IC50 of less than 1000 nM.
The result for `CCN(CCN(C)C)C(=O)CNCc1cc(C(=O)OC(C)CCN(C)C(=O)C(F)(F)F)ccn1` (stereo not shown) [drawing 240, 4-(2,2,2-trifluoro-N-methylacetamido)butan-2-yl 2-{[({[2-(dimethylamino)ethyl](ethyl)carbamoyl}methyl)amino]methyl}pyridine-4-carboxylate] reads less than 1000 nM; that for `CCN(CCN(C)C)C(=O)CNCc1cc(C(=O)OCC(F)(F)F)ccn1` [drawing 251, 2,2,2-trifluoroethyl 2-{[({[2-(dimethylamino)ethyl](ethyl)carbamoyl}methyl)amino]methyl}pyridine-4-carboxylate], less than 1000 nM; that for `C=CC(CCN(C)C(=O)C(F)(F)F)OC(=O)c1ccnc(CNCC(=O)N(CC)CCN(C)C)c1` (stereo not shown) [drawing 243, 5-(2,2,2-trifluoro-N-methylacetamido)pent-1-en-3-yl 2-{[({[2-(dimethylamino)ethyl](ethyl)carbamoyl}methyl)amino]methyl}pyridine-4-carboxylate], less than 1000 nM.
